Assay [1] deals with Nannizzia gypsea. Kind of assay: Antifungal activity against Microsporum gypseum C 115 2000 assessed as fungal growth inhibition by cup-plate method. It is filed as functional.
Assay [2] has as its system MCF7. Kind of assay: cells. The class given is functional, cell-based. The settings on record: Homo sapiens, MCF7, 72 h.
Description: Cytotoxicity against human MCF7 cells assessed as cell growth inhibition incubated for 3 days by MTT assay
Assay [3] has as its system RAW264.7. Kind of assay: Inhibition of ROS production in LPS-stimulated mouse RAW264.7 cells preincubated for 1 hr followed by LPS stimulation measured after 24 hrs by fluorometry. It is filed as functional, cell-based.
For assay [4], the target named is T1, 1,25-dihydroxyvitamin D(3) 24-hydroxylase, mitochondrial (Homo sapiens, UniProt Q07973). Kind of assay: Displacement of 25-hydroxy-[26,27-methyl-3H]-vitamin D3 from CYP24 in 1,25(OH)2D3-treated human DU-145 cells using 25-(OH)D3 as substrate pretreated with 1,25(OH)2D3 for 24 hrs followed by compound addition measured after 30 mins by HPLC analysis. It is filed as cell-based.
T1 sequence (Q07973 whole entry): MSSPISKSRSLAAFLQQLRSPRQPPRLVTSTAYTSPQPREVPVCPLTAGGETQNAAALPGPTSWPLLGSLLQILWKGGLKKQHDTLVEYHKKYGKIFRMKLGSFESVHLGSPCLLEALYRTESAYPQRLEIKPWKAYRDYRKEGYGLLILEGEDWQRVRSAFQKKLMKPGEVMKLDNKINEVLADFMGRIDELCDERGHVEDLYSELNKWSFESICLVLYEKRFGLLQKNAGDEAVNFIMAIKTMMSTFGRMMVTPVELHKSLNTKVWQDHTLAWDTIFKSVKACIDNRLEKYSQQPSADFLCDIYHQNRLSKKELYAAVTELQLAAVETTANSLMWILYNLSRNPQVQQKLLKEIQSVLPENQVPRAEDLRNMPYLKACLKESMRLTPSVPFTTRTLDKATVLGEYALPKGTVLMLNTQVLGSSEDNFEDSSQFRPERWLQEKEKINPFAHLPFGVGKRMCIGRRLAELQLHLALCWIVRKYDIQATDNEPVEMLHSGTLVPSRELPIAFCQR

Assay [5] has as its system DU-145. Kind of assay: Cytotoxicity against 1,25-(OH)2D3-treated human DU-145 cells assessed as cell growth inhibition incubated for 96 hrs and re-dosed after 48 hrs […] by MTT assay relative to control. Details: scale not given: the % may be the effect or the level left. The settings on record: time 273 hrs. The class given is functional.
In assay [6] the target is T2, Amine oxidase [flavin-containing] A (Homo sapiens, UniProt P21397).
T2 sequence (P21397 whole entry): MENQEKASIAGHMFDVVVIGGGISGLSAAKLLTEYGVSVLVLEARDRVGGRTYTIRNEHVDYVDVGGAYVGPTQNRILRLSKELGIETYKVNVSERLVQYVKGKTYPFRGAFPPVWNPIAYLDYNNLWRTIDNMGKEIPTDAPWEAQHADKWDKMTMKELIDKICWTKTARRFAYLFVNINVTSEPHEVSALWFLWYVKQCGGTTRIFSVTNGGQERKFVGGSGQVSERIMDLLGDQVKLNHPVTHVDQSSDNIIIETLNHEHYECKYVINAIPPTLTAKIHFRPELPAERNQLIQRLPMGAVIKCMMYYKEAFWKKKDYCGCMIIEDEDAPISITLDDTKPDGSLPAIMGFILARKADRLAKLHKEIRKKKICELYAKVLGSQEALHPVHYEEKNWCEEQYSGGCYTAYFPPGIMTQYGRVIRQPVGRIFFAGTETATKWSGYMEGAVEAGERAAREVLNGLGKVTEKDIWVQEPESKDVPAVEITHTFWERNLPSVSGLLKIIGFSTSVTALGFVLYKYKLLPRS
Kind of assay: Inhibition of recombinant human MAO-A assessed as measuring amount of 4-hydroxyquinoline using kynuramine as substrate incubated for 20 mins by fluorescence spectrophotometry.

Assay [7] addresses T2, Amine oxidase [flavin-containing] A. Nature of the assay: Inhibition of human MAO-A assessed as measuring amount of 4-hydroxyquinoline using kynuramine as substrate incubated for 20 mins by fluorescence spectrophotometry.
The target of assay [8] is T3, Amine oxidase [flavin-containing] B (Homo sapiens, UniProt P27338).
T3 sequence (P27338 whole entry): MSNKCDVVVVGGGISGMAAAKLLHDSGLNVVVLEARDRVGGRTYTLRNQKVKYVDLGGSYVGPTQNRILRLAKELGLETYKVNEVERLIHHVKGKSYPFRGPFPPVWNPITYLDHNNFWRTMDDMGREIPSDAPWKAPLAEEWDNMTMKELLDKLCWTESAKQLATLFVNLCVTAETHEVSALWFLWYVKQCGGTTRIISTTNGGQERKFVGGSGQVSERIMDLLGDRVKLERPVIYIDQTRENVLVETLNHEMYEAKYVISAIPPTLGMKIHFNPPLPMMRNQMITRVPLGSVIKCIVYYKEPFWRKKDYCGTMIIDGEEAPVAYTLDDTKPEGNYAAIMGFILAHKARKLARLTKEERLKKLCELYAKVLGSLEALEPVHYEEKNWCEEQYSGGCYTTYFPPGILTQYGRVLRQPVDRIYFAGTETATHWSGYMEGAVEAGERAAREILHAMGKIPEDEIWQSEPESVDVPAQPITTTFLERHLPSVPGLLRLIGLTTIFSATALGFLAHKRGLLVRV
Kind of assay: Inhibition of human MAO-B assessed as measuring amount of 4-hydroxyquinoline using kynuramine as substrate incubated for 20 mins by fluorescence spectrophotometry.

For assay [9], the species on record is Homo sapiens. Kind of assay: Selectivity index, ratio of IC50 for human MAO-A to IC50 for human MAO-B.
Assay [10] deals with A549. Nature of the assay: Cytotoxicity against human A549 cells assessed as cell growth inhibition incubated for 72 hrs by sulforhodamine B assay. It is filed as functional, cell-based. The settings on record: A549, 72 h.
Assay [11] has as its system HeLa. Kind of assay: Cytotoxicity against human HeLa cells assessed as cell growth inhibition incubated for 72 hrs by sulforhodamine B assay. The class given is functional, cell-based.
Assay [12] relates to Trypanosoma brucei brucei. Kind of assay: Antitrypanosomal activity against Trypanosoma brucei brucei trypomastigotes assessed as parasite viability measured after 48 hrs by resazurin based fluorescence assay relative to control. The class given is functional.
For assay [13], the system named is Trypanosoma brucei brucei. Kind of assay: Antitrypanosomal activity against Trypanosoma brucei brucei trypomastigotes assessed as parasite viability measured after 48 hrs by resazurin based fluorescence assay. It is filed as functional, organism-based.
In assay [14] the test system is BGC-823. Nature of the assay: Cytotoxicity against human BGC-823 cells assessed as cell growth inhibition by MTT assay. It is filed as functional, cell-based.
Assay [15] has as its system Candida albicans. Kind of assay: Antifungal activity against Candida albicans MTCC 227 assessed as fungal growth inhibition. It is filed as functional.
Assay [16] relates to Aspergillus fumigatus. Nature of the assay: Antifungal activity against Aspergillus fumigatus MTCC 343 assessed as fungal growth inhibition. The class given is functional.
Assay [17] has as its target T2, Amine oxidase [flavin-containing] A. Nature of the assay: Inhibition of MAO-A (unknown origin).
The target of assay [18] is T3, Amine oxidase [flavin-containing] B. Nature of the assay: Inhibition of MAO-B (unknown origin).
Assay [19] is filed under the species Homo sapiens. Nature of the assay: Selectivity index, ratio of IC50 for MAO-A (unknown origin) to IC50 for MAO-B (unknown origin).
Assay [20] relates to Fusarium oxysporum. Kind of assay: Antifungal activity against Fusarium oxysporum assessed as fungal growth inhibition. It is filed as functional, organism-based.
In assay [21] the test system is Fusarium solani. Kind of assay: Antifungal activity against Fusarium solani assessed as fungal growth inhibition. It is filed as functional, organism-based.
A short description of assay [22]: Antioxidant activity assessed as DPPH radical scavenging activity incubated for 30 mins under dark condition by absorbance based assay. It is filed as functional.
Assay [23] is described as follows: Antioxidant activity assessed as superoxide scavenging activity incubated for 20 mins by absorbance based assay. The class given is functional.
Assay [24] in a line: Antioxidant activity assessed as hydroxyl radical scavenging activity incubated for 30 mins by absorbance based assay. The class given is functional.
For assay [25], the system named is MDA-MB-231. Kind of assay: Cytotoxicity against human MDA-MB-231 cells assessed as cell growth inhibition incubated for 72 hrs by alamar blue staining based assay. The settings on record: MDA-MB-231, 72 h. The class given is functional.
The subject of assay [26] is HepG2. Nature of the assay: Antiproliferative activity against human HepG2 cells assessed as cell growth inhibition at 500 uM for 24 to 72 hrs by MTT assay relative to control. Details: scale not given: the % may be the effect or the level left. The class given is functional. The settings on record: time 24-72 hrs.
For assay [27], the system named is L02. Kind of assay: Antiproliferative activity against human L02 cells assessed as cell growth inhibition at 500 uM for 24 to 72 hrs by MTT assay relative to control. The settings on record: time 24-72 hrs. Details: scale not given: the % may be the effect or the level left. It is filed as functional.
Assay [28] deals with HepG2. Kind of assay: Downregulation of phosphorylated Akt in human HepG2 cells xenografted in BALB/c mouse at 160 mg/kg/day, ip for 19 days and measured after 24 hrs post last dose by immunohistochemical analysis relative to control. The class given is functional. The settings on record: time 20 day.
In assay [29] the test system is HepG2. Kind of assay: Downregulation of NF-kappaB in human HepG2 cells xenografted in BALB/c mouse at 160 mg/kg/day, ip for 19 days and measured after 24 hrs post last dose by immunohistochemical analysis relative to control. It is filed as functional. The settings on record: time 20 day.
For assay [30], the system named is HepG2. Nature of the assay: Downregulation of MMP9 in human HepG2 cells xenografted in BALB/c mouse at 160 mg/kg/day, ip for 19 days and measured after 24 hrs post last dose by immunohistochemical analysis relative to control. The class given is functional. The settings on record: time 20 day.
For assay [31], the system named is HepG2. Kind of assay: Downregulation of MMP2 in human HepG2 cells xenografted in BALB/c mouse at 160 mg/kg/day, ip for 19 days and measured after 24 hrs post last dose by immunohistochemical analysis relative to control. The class given is functional. The settings on record: time 20 day.
In assay [32] the test system is A549. Kind of assay: Antiproliferative activity against human A549 cells assessed as cell growth inhibition by MTT assay. It is filed as functional, cell-based.
Assay [33] relates to HT-29. Nature of the assay: Antiproliferative activity against human HT-29 cells assessed as cell growth inhibition by MTT assay. It is filed as functional, cell-based.
For assay [34], the system named is T-24. Nature of the assay: Antiproliferative activity against human T24 cells assessed as cell growth inhibition by MTT assay. The class given is functional, cell-based.
The subject of assay [35] is MCF7. Nature of the assay: Antiproliferative activity against human MCF7 cells assessed as cell growth inhibition by MTT assay. The class given is functional, cell-based.
In assay [36] the test system is HepG2. Kind of assay: Antiproliferative activity against human HepG2 cells assessed as cell growth inhibition by MTT assay. The class given is functional, cell-based.
The target of assay [37] is T1, 1,25-dihydroxyvitamin D(3) 24-hydroxylase, mitochondrial. Nature of the assay: Inhibition of CYP24 (unknown origin). The class given is ADME.

The text below walks through data of ChEMBL document CHEMBL5136978, “Research progress in pharmacological activities and structure-activity relationships of tetralone scaffolds as pharmacophore and fluorescent skeleton” (Eur J Med Chem, 2022).

Converted amounts (≈) assume the structure as drawn.

`O=C1/C(=C/c2ccc(Cl)cc2)CCc2ccccc21`: the MIC in assay [1] was 3 µg/mL (≈ 11.2 µM).

`COc1ccc(C2C(C#N)=C(N)Oc3c2s/c(=N\c2ccc(Br)cc2)n3/N=C2\CCCc3cc(OC)ccc32)cc1` (configuration not stated) came in with a half-inhibitory concentration (IC50) in assay [2] of 930 nM.

Take `Nc1ccc2c(c1)CC/C(=C\c1ccccc1F)C2=O`: the IC50 in [3] was found to be 250 nM.

For `COc1ccc2c(c1)CCC(Cc1ccc(O)cc1)C2=O` (configuration not stated), the IC50 in assay [4] turned out to be 3.5 µM. Further, in [5], the Activity is given as 25%.

Take `O=C1CCCc2ccc(OCc3ccc(Cl)cc3)cc21`: in assay [6], the IC50 was determined as 36 nM.

In the case of `COc1ccc2c(c1)C(=O)/C(=C/c1ccc[nH]1)CC2`, the IC50 in [7] turned out to be 1960 nM; in assay [8] it was 707 nM. For the same compound, the Ratio IC50 in assay [9] was 2.8.

Take `O=C1c2c(O)cccc2[C@@H](O[C@@H]2O[C@H](CO)[C@@H](O)[C@H](O)[C@H]2O)C[C@@H]1[C@H]1C[C@H](O)c2c(O[C@@H]3O[C@H](CO)[C@@H](O)[C@H](O)[C@H]3O)ccc(O)c2C1=O`: the IC50 in [10] is 73.7 µM; in assay [11], 85.1 µM.

Regarding `O=C1/C(=C/c2ccccc2-c2ccccc2)CCc2cc(O)ccc21`, the Activity in assay [12] came to 0.7%. In assay [13], the IC50 came to 400 nM.

For the compound `CCCCOC1CCC(=O)c2c(O)ccc(O)c21` (configuration not stated), the IC50 in assay [14] was 126 µg/mL (≈ 503 µM).

In the case of `COc1ccc2c(c1)CC[C@@H]1C2=NN(C2=NC(=O)CS2)[C@@H]1c1ccccc1`, the MIC in [15] and in assay [16] was 12.5 µg/mL (≈ 33.1 µM) each time.

For `O=C1/C(=C/c2cccc(Br)c2)CCc2ccc(O)cc21`, the figures for the IC50 in [17] and in assay [18] were 754 nM and 13 nM, respectively. Besides, the Ratio IC50 in [19] turned out to be 58.

As for `O=C1C[C@@H](O)Cc2cc(O)c(O)cc21`, the EC50 was found to be 413 µg/mL (≈ 2130 µM) in assay [20] and 48.5 µg/mL (≈ 250 µM) in assay [21].

On to `O=C(/C=C/c1ccc(O)cc1)OC[C@H]1O[C@@H](Oc2ccc(O)c3c2C[C@H](O)CC3=O)C[C@@H](O)[C@@H]1O`, for which the IC50 was 57.5 µM in assay [22], 61.2 µM in assay [23] and 2000 nM in [24].

As for `C[C@H]1CC(=O)c2c(O)cccc2[C@@H]1O`, the half-maximal inhibitory concentration (IC50) in assay [25] is over 520 µM.

Turning to `COc1ccc2c(c1)C(=O)CCC2`, the Activity is listed as over 50% in [26]; over 50% in assay [27]; 2.91% in assay [28]; 35.47% in assay [29]; 7.64% in [30]; 9.69% in assay [31].

For the compound `CC(C)c1ccc2c(c1)C(C)(C)CC(Sc1nc(N)n(S(=O)(=O)c3ccc(Cl)c([N+](=O)[O-])c3)n1)C2=O` (configuration not stated), the IC50 in [32] is 9.89 µM; in [33] it was 22.2 µM; in assay [34], 26.9 µM; in [35] it was 28.9 µM; in assay [36] it was 21.4 µM.

Compound `COc1ccc2c(c1)CC/C(=C\c1cc(C(F)(F)F)ccc1C(F)(F)F)C2=O` displayed an IC50 in [37] of 900 nM.
